From US6541514B2, “Process for the manufacture of 117Sn diethylenetriaminepentaacetic acids” (Brookhaven Science Associates, LLC, priority 2001, dated 2003)
Where two headings read alike, the source gives them in different places.

Experiments:
[1] = cited from earlier work; for relief of bone pain: humans
[2] = in vivo; cited from earlier work
[3] = cited from earlier work; for myelosuppression / bone marrow toxicity: in vivo
[4] = system: Chinese hamster V79 cells; test: Radiotoxicity in cultured mammalian cells (colony survival); type: cell-based; settings: 14 h labeling, 72 h at 10.5° C.
Protocol: The present study examines the radiotoxicity of composition of the invention when incorporated into cultured mammalian cells.
The cells were then resuspended in fresh culture medium and maintained at 10.5° C. on a rocker-roller for 72 h. Cells were then washed again, serially diluted, and seeded into culture dishes. After 1 week the colonies were stained and counted, the surviving fraction compared to unlabeled controls was determined.

O=[32P](O)(O)O [^32P orthophosphate]
duration of pain relief / response ([1]; patients): two to four months
time to pain relief / clinical benefit after administration ([1]; patients): within five to fourteen days
increase in uptake in bone around osseous metastases as compared to normal bone [2]: 3- to 5 fold

[89Sr+2].[Cl-].[Cl-] [^89Sr, ^89SrCl2]
duration of pain relief / response ([1]; patients): three to six months
patients with bone pain / symptom relief ([1]; patients): 60 to 80%
time to pain relief / clinical benefit after administration ([1]; patients): two to four weeks after injection
biological half-life in normal bone [2]: 14 days
biological half-life in osteoblastic metastases [2]: exceeds 50 days
decrease in platelet count ([3]; four weeks after therapy): 30%

O=P([O-])(O)CN(CCN(CP(=O)([O-])O)CP(=O)(O)O)CP(=O)([O-])O.[153Sm+3] [^153Sm-EDTMP, ^153Sm ethylenediaminetetramethylenephosphonate (EDTMP) complex]
duration of pain relief / response ([1]; patients): four to forty weeks
time to pain relief / clinical benefit after administration ([1]; patients): within two weeks
myelosuppression / bone marrow toxicity [3]: Reversible myelosuppression

^117mSn (Sn^4+) diethylenetriaminepentaacetic acid (DTPA) [^117mSn(Sn^4+)DTPA]
cellular uptake required to achieve 37% survival [4]: 0.95 mBq/cell
relief of bone pain [1]: effective agent for palliation of pain caused by bone metastases
relief of bone pain ([1]; listed as 117mSn (Sn^4+) DTPA): dose-dependent relief of bone pain
bone uptake and retention compared with 32P orthophosphate, 153Sm-EDTMP, 186Re-HEDP and 89SrCl2 [2]: higher bone uptake and retention
myelosuppression / bone marrow toxicity [3]: no substantial toxicity to marrow tissues
myelosuppression / bone marrow toxicity ([3]; listed as 117mSn (Sn^4+) DTPA): None of the ^117mSn (Sn^4+) DTPA compositions used in WO 95/29706 exhibited bone marrow toxicity
